17 compounds from US4560509A, “Antibiotic A39079 factor S-1” (Eli Lilly and Company, priority 1983, dated 1985) can be followed below.

Values after ≈ are worked out from the molar mass of the structure shown. Positions of bridges follow the written chain, without caps; N, C: chain ends. Non-standard residues stand in square brackets, D forms with d. Residues, ends and D or L forms follow the SMILES beside them. *: point of attachment. Ileψ(thiazoline)Cys = CC[C@H](C)[C@H](N)C1=N[C@H](C(=O)*)CS1; dOrn = NCCC[C@@H](N)C(=O)O Some results are limits rather than exact numbers.

Common to all, as to format: cell-based
Test [1] relates to Streptomyces spheroides NRRL 15600. Put plainly: antibiotic sensitivity of the producing culture. The text has this: In classifying the microorganism as a new strain of S. spheroides, the methods recommended by the International Streptomyces Project (ISP) for the characterization of Streptomyces species [E. B. Shirling and D. Gottlieb, "Methods of Characterization of Streptomyces species," Int. J. Syst. Bacteriol. 16(3), 313-340 (1966)] were followed along with certain supplementary tests.

The test system of a further test is Escherichia coli. Put plainly: antibiotic activity of column fractions. As to the method:
(§1) Whole broth (100 L), prepared in a manner similar to that of Example 1, Section B, was filtered using a filter aid (Hyflo Supercel, Johns-ManvilleCorp.). The filtered broth (86 L) is adjusted to pH 2 with 5N hydrochloric acid and then is extracted twice with ethyl acetate (1/2 volumes). The ethyl acetate extracts are concentrated under vacuum to give an oily residue (49 g). This residue is dissolved in methanol and placed on a 10-L Diaion HP-20 column (Mitsubishi Industries). The column is washed with water (500 ml) and eluted with acetonitrile:water (30 L of 3:7 and 50 L of 3:2) and acetonitrile (20 L). Elution is carried out at a rate of 100 ml/min., collecting 4-liter fractions. Fractions are tested for antibiotic activity against Micrococcus luteus, Escherichia coli, and Neurospora crassa.

Another test has as its system Neurospora crassa. The test can be described thus: antibiotic activity of column fractions. As to the method:
as §1

The test system of test [2] is Enterobacter cloacae 265A. Put plainly: standard agar-dilution MIC assay. As to conditions: Enterobacter cloacae, 265A. From the text: (§2) Table V summarizes the minimal inhibitory concentrations (MIC) at which factor S-1 inhibits certain organisms as determined by standard agar-dilution assays. In Table V, the activity of factor S-1 is compared with that of rifampin.

Test [3] concerns Enterobacter aerogenes C32. The test can be described thus: standard agar-dilution MIC assay. The conditions noted are these: Klebsiella aerogenes, C32.
From the text: as §2

For a further test, the system named is Escherichia coli N10. The test can be described thus: standard agar-dilution MIC assay.
From the text: as §2

Test [4] deals with Klebsiella pneumoniae KAE. The test can be described thus: standard agar-dilution MIC assay. The conditions noted are these: Klebsiella pneumoniae.
From the text: as §2

Another test concerns Shigella sonnei N9. The test can be described thus: standard agar-dilution MIC assay.
From the text: as §2

Test [5] relates to Pseudomonas aeruginosa X528. Put plainly: standard agar-dilution MIC assay. As to conditions: Pseudomonas aeruginosa, X528.
From the text: as §2

The test system of a further test is Serratia marcescens SE3. Put plainly: standard agar-dilution MIC assay. The conditions noted are these: Serratia marcescens, SE3.
From the text: as §2

Test [6] relates to Staphylococcus aureus NRRL B313. Put plainly: standard agar-dilution MIC assay. The conditions noted are these: Staphylococcus aureus, NRRLB313.
From the text: as §2

Test [7] deals with Staphylococcus epidermidis EPI1. Put plainly: standard agar-dilution MIC assay.
From the text: as §2

Another test has as its system Salmonella typhi 1335. Put plainly: standard agar-dilution MIC assay. The conditions noted are these: Salmonella enterica.
From the text: as §2

In test [8] the test system is Klebsiella pneumoniae X26. The test can be described thus: standard agar-dilution MIC assay. As to conditions: Klebsiella pneumoniae, X26.
From the text: as §2

In a further test the test system is Proteus morganii PR15. The test can be described thus: standard agar-dilution MIC assay. The conditions noted are these: Morganella morganii, PR15.
From the text: as §2

The subject of another test is Proteus inconstans PR33. Put plainly: standard agar-dilution MIC assay. As to conditions: Providencia alcalifaciens, PR33.
From the text: as §2

In another test the test system is Escherichia coli EC14. The test can be described thus: standard agar-dilution MIC assay.
From the text: as §2

Test [9] concerns Staphylococcus aureus V41. Put plainly: standard agar-dilution MIC assay. As to conditions: Staphylococcus aureus, V41.
From the text: as §2

The test system of test [10] is Staphylococcus epidermidis 222. The test can be described thus: standard agar-dilution MIC assay. The conditions noted are these: Staphylococcus epidermidis, 222.
From the text: as §2

The test system of test [11] is Staphylococcus aureus S13E. The test can be described thus: standard agar-dilution MIC assay.
From the text: as §2

Test [12] concerns Pseudomonas aeruginosa Ps18. Put plainly: standard agar-dilution MIC assay.
From the text: as §2

Test [13] has as its system Klebsiella pneumoniae X68. Put plainly: standard agar-dilution MIC assay. As to conditions: Klebsiella pneumoniae, X68.
From the text: as §2

The next test has as its system Salmonella typhi X514. The test can be described thus: standard agar-dilution MIC assay. The conditions noted are these: Salmonella enterica.
From the text: as §2

Test [14] deals with Citrobacter freundii CF17. The test can be described thus: standard agar-dilution MIC assay. The conditions noted are these: Citrobacter freundii, CF17.
From the text: as §2

The subject of another test is Proteus rettgeri C24. The test can be described thus: standard agar-dilution MIC assay. The conditions noted are these: Providencia rettgeri, C24.
From the text: as §2

A further test relates to Serratia marcescens X99. Put plainly: standard agar-dilution MIC assay. As to conditions: Serratia marcescens, X99.
From the text: as §2

The test system of test [15] is Enterobacter aerogenes EB17. The test can be described thus: standard agar-dilution MIC assay. As to conditions: Klebsiella aerogenes, EB17.
From the text: as §2

Test [16] relates to Streptococcus pyogenes C203. The test can be described thus: standard agar-dilution MIC assay.
From the text: as §2

In test [17] the test system is Staphylococcus aureus X400. Put plainly: standard agar-dilution MIC assay. The conditions noted are these: Staphylococcus aureus, X400.
From the text: as §2

For test [18], the system named is Pseudomonas aeruginosa X239. The test can be described thus: standard agar-dilution MIC assay. As to conditions: Pseudomonas aeruginosa, X239.
From the text: as §2

The test system of test [19] is Streptococcus pneumoniae Park 1. Put plainly: standard agar-dilution MIC assay. As to conditions: Streptococcus pneumoniae, PARK1.
From the text: as §2

Test [20] concerns Streptococcus faecium ATCC 9790. Put plainly: standard agar-dilution MIC assay. The conditions noted are these: Enterococcus faecium, ATCC9790.
From the text: as §2

The subject of test [21] is Streptococcus sp. group D 9960. Put plainly: standard agar-dilution MIC assay. The conditions noted are these: Streptococcus.
From the text: as §2

The subject of the next test is Enterobacter cloacae EB5. The test can be described thus: standard agar-dilution MIC assay. The conditions noted are these: Enterobacter cloacae, EB5.
From the text: as §2

The subject of a further test is Escherichia coli TEM. The test can be described thus: standard agar-dilution MIC assay.
From the text: as §2

Regarding `O=C(N[C@H](CO)[C@H](O)c1ccc([N+](=O)[O-])cc1)C(Cl)Cl` [Chloramphenicol], in test [1], the “resistance / sensitivity of the culture to antibiotic” value (shortened to “resistance / sensitivity”) is listed as “resistant”. Further, the “activity against E. coli” value with Escherichia coli is “active”.
Regarding `C[C@@H]1C[C@@H]([C@H](O)CC2CC(=O)NC(=O)C2)C(=O)[C@@H](C)C1` [Cycloheximide], the “activity against N. crassa” value in the test on Neurospora crassa is given as “active”.
For `CO[C@H]1/C=C/O[C@@]2(C)Oc3c(C)c(O)c4c(O)c(c(/C=N/N5CCN(C)CC5)c(O)c4c3C2=O)NC(=O)/C(C)=C\C=C\[C@H](C)[C@H](O)[C@@H](C)[C@@H](O)[C@@H](C)[C@H](OC(C)=O)[C@@H]1C` [Rifampin, reference compound], the “resistance / sensitivity” value in [1] is listed as “resistant”. In addition, the minimum inhibitory concentration (MIC) was 32 µg/mL (≈ 38.9 µM) in test [2]; 32 µg/mL (≈ 38.9 µM) in test [3]; 16 µg/mL (≈ 19.4 µM) against Escherichia coli N10; 32 µg/mL (≈ 38.9 µM) in test [4]; 16 µg/mL (≈ 19.4 µM) in the test on Shigella sonnei N9; 16 µg/mL (≈ 19.4 µM) in test [5]. Also, the MIC in the test with Serratia marcescens SE3 came to 64 µg/mL (≈ 77.8 µM); in [6] it was 0.03 µg/mL (≈ 0.0365 µM); in test [7], 0.06 µg/mL (≈ 0.0729 µM); with Salmonella typhi 1335, 16 µg/mL (≈ 19.4 µM); in test [8], 16 µg/mL (≈ 19.4 µM); with Proteus morganii PR15 it was 32 µg/mL (≈ 38.9 µM). In addition, the minimum inhibitory concentration (MIC) against Proteus inconstans PR33 was 16 µg/mL (≈ 19.4 µM); against Escherichia coli EC14, 16 µg/mL (≈ 19.4 µM); in test [9] it was 0.015 µg/mL (≈ 0.0182 µM); in test [10] it was 0.06 µg/mL (≈ 0.0729 µM); in [11] it was 0.03 µg/mL (≈ 0.0365 µM); in test [12] it was > 128 µg/mL. The MIC in test [13] came out at 16 µg/mL (≈ 19.4 µM); in the test with Salmonella typhi X514 it was 16 µg/mL (≈ 19.4 µM); in test [14] it was 16 µg/mL (≈ 19.4 µM); in the test with Proteus rettgeri C24, 8 µg/mL (≈ 9.72 µM); against Serratia marcescens X99, 32 µg/mL (≈ 38.9 µM); in test [15], 32 µg/mL (≈ 38.9 µM). For the same compound, the MIC in test [16] amounted to 0.25 µg/mL (≈ 0.304 µM); in [17], 0.06 µg/mL (≈ 0.0729 µM); in [18], 16 µg/mL (≈ 19.4 µM); in [19], 0.125 µg/mL (≈ 0.152 µM); in [20], 2 µg/mL (≈ 2.43 µM); in [21] it was 2 µg/mL (≈ 2.43 µM). Further, the MIC in the test on Enterobacter cloacae EB5 stood at 32 µg/mL (≈ 38.9 µM); with Escherichia coli TEM it was 128 µg/mL (≈ 156 µM).
In the case of `CC[C@H](C)[C@H](N)C1=N[C@H](C(=O)N[C@@H](CC(C)C)C(=O)N[C@H](CCC(=O)O)C(=O)N[C@H](C(=O)N[C@H]2CCCCNC(=O)[C@H](CC(N)=O)NC(=O)[C@@H](CC(=O)O)NC(=O)[C@H](Cc3cnc[nH]3)NC(=O)[C@@H](Cc3ccccc3)NC(=O)[C@H]([C@@H](C)CC)NC(=O)[C@@H](CCCN)NC2=O)[C@@H](C)CC)CS1` [bacitracin] ({Ileψ(thiazoline)Cys}-L[dE]IK[dOrn]I[dF]H[dD]N; lactam 4-C), the “resistance / sensitivity” value in [1] was “sensitive”.
For the compound `CC(=O)OCC1=C(C(=O)O)N2C(=O)[C@@H](NC(=O)Cc3cccs3)[C@H]2SC1` [cephalothin], in test [1], the “resistance / sensitivity” value is listed as “sensitive”.
The same measure, in the same setting: as for `CC[C@H]1OC(=O)[C@H](C)[C@@H](O[C@H]2C[C@@](C)(OC)[C@@H](O)[C@H](C)O2)[C@H](C)[C@@H](O[C@@H]2O[C@H](C)C[C@H](N(C)C)[C@H]2O)[C@](C)(O)C[C@@H](C)C(=O)[C@H](C)[C@@H](O)[C@]1(C)O` [erythromycin], the entry is “sensitive”; as for `CCC[C@@H]1C[C@@H](C(=O)N[C@@H]([C@H]2O[C@H](SC)[C@H](O)[C@@H](O)[C@H]2O)[C@@H](C)O)N(C)C1` [lincomycin], “resistant”.
Consider `CCn1cc(C(=O)O)c(=O)c2ccc(C)nc21` [nalidixic acid], for which the “resistance / sensitivity” value in test [1] is “resistant”.
Still for that read-out and setting: as for `NC[C@@H]1O[C@H](O[C@H]2[C@@H](O)[C@H](O[C@@H]3[C@@H](O)[C@H](N)C[C@H](N)[C@H]3O[C@H]3O[C@H](CN)[C@@H](O)[C@H](O)[C@H]3N)O[C@@H]2CO)[C@H](N)[C@@H](O)[C@@H]1O` [neomycin], the entry is “sensitive”.
`CO[C@@H]1[C@@H](OC(N)=O)[C@@H](O)[C@H](Oc2ccc3c(O)c(NC(=O)c4ccc(O)c(CC=C(C)C)c4)c(=O)oc3c2C)OC1(C)C` [novobiocin]: in test [1], the “resistance / sensitivity” value is on record as “sensitive”.
Still for that read-out and setting: in the case of `CC1(C)S[C@@H]2[C@H](NC(=O)Cc3ccccc3)C(=O)N2[C@H]1C(=O)O` [penicillin G] it was “sensitive”; in that of `[H]/N=C(/N)N[C@H]1[C@H](O)[C@@H](O)[C@H](O[C@@H]2O[C@@H](C)[C@](O)(C=O)[C@H]2O[C@@H]2O[C@@H](CO)[C@H](O)[C@@H](O)[C@@H]2NC)[C@@H](N/C(N)=N\[H])[C@@H]1O` [streptomycin], “sensitive”.
Same read-out and setting: as for `Nc1ccc(S(=O)(=O)Nc2ncccn2)cc1` [sulfadiazine], the entry is “sensitive”; as for `CN(C)[C@@H]1C(O)=C(C(N)=O)C(=O)[C@@]2(O)C(O)=C3C(=O)c4c(O)cccc4[C@@](C)(O)[C@H]3C[C@@H]12` [tetracycline], “sensitive”.
On to `CN[C@H](CC(C)C)C(=O)N[C@H]1C(=O)N[C@@H](CC(N)=O)C(=O)N[C@H]2C(=O)N[C@H]3C(=O)N[C@H](C(=O)N[C@H](C(=O)O)c4cc(O)cc(O)c4-c4cc3ccc4O)[C@H](O)c3ccc(c(Cl)c3)Oc3cc2cc(c3O[C@@H]2O[C@H](CO)[C@@H](O)[C@H](O)[C@H]2O[C@H]2C[C@](C)(N)[C@H](O)[C@H](C)O2)Oc2ccc(cc2Cl)[C@H]1O` [vancomycin], for which the “resistance / sensitivity” value in test [1] is recorded as “sensitive”.
As for gentamicin, the “resistance / sensitivity” value in [1] was “sensitive”.
Consider polymyxin B, for which, in test [1], the “resistance / sensitivity” value is listed as “sensitive”.

One may read the MIC as the lowest concentration found to suppress growth.
